Source: ChEMBL document CHEMBL4376889, “Discovery of a Brain-Penetrant ATP-Competitive Inhibitor of the Mechanistic Target of Rapamycin (mTOR) for CNS Disorders” (J Med Chem, 2020)
Values after ≈ are worked out from the molar mass of the structure shown. Active and inactive are the calls of the source. The rule behind the calls is not given here.

Assays:
[1] = molecular target: Phosphatidylinositol 4,5-bisphosphate 3-kinase catalytic subunit gamma isoform (Homo sapiens, UniProt P48736); assay: Inhibition of PI3Kgamma (unknown origin)
[2] = Stability in monkey liver microsomes assessed as intrinsic clearance; format: ADME, Macaca mulatta, Microsome; conditions: rhesus monkey, read-out: CLH
[3] = molecular target: Phosphatidylinositol 4,5-bisphosphate 3-kinase catalytic subunit alpha isoform (Homo sapiens, UniProt P42336); assay: Inhibition of PI3Kalpha (unknown origin)
[4] = Stability in rat liver microsomes assessed as intrinsic clearance; format: ADME, Microsome; conditions: read-out: CLH
[5] = Stability in dog liver microsomes assessed as intrinsic clearance; format: ADME, Canis lupus familiaris, Microsome; conditions: read-out: CLH
[6] = molecular target: Phosphatidylinositol 4,5-bisphosphate 3-kinase catalytic subunit beta isoform (Homo sapiens, UniProt P42338); assay: Inhibition of PI3Kbeta (unknown origin)
[7] = Stability in human liver microsomes assessed as intrinsic clearance; format: ADME, Microsome; conditions: read-out: CLH
Cytochrome P450 2D6 = Cytochrome P450 2D6 (Homo sapiens, UniProt P10635); assay: Inhibition of CYP2D6 (unknown origin); format: ADME
[8] = Stability in mouse liver microsomes assessed as intrinsic clearance; format: ADME, Microsome; conditions: read-out: CLH
[9] = molecular target: Phosphatidylinositol 4,5-bisphosphate 3-kinase catalytic subunit delta isoform (Homo sapiens, UniProt O00329); assay: Inhibition of PI3Kdelta (unknown origin)
MDR1 = assay: Efflux ratio of permeability from basolateral to apical over apical to basolateral side in MDCK-MDR1 cells; format: ADME, cell-based, Canis lupus familiaris; conditions: dog
Cytochrome P450 2C9 = Cytochrome P450 2C9 (Homo sapiens, UniProt P11712); assay: Inhibition of CYP2C9 (unknown origin); format: ADME
Cytochrome P450 3A4 = Cytochrome P450 3A4 (Homo sapiens, UniProt P08684); assay: Inhibition of CYP3A4 (unknown origin); format: ADME
[10] = molecular target: T1, Serine/threonine-protein kinase mTOR (Mus musculus, UniProt Q9JLN9); assay: Inhibition of mTOR in mouse TSC1-/- MEF cells assessed as inhibition of S6 Ser240/244 phosphorylation incubated for 2 hrs by fluorescence based assay; format: cell-based
[11] = molecular target: T1, Serine/threonine-protein kinase mTOR; assay: Inhibition of mTOR in mouse MEF cells harboring TSC1 deletion mutant assessed as reduction in PS6 phosphorylation incuabted for 2 hrs alexa fluor 594 and Hoechst staining based fluorescence assay; format: cell-based
[12] = Solubility of compound at pH 6.8; format: physicochemical; conditions: buffer
[13] = Stability in rat liver microsomes assessed as intrinsic clearance at 1 uM incubated for 30 mins by LC-MS/MS analysis; format: ADME, Microsome; conditions: read-out: CLH
Mus musculus = assay: Protection against C57BL/6J mouse model of neuronal mTOR hyperactivity assessed as survival rate at 6 mg/kg, ip administered on postnatal day 22 daily and measured on postnatal day 52 (reference value: 48 %); format: functional
Cortical neurone [14] = assay: Inhibition of oversizing of mouse primary cortical neuron harboring TSC1 deletion mutant at 20 nM incubated for 7 days by immunofluorescence assay; format: functional, cell-based; conditions: 168 h
Cortical neurone [15] = assay: Inhibition of overgrowth of mouse primary cortical neuron harboring TSC1 deletion mutant at 20 nM incubated for 7 days by immunofluorescence assay; format: functional, cell-based

Sequence of Cytochrome P450 3A4 (P08684 whole entry): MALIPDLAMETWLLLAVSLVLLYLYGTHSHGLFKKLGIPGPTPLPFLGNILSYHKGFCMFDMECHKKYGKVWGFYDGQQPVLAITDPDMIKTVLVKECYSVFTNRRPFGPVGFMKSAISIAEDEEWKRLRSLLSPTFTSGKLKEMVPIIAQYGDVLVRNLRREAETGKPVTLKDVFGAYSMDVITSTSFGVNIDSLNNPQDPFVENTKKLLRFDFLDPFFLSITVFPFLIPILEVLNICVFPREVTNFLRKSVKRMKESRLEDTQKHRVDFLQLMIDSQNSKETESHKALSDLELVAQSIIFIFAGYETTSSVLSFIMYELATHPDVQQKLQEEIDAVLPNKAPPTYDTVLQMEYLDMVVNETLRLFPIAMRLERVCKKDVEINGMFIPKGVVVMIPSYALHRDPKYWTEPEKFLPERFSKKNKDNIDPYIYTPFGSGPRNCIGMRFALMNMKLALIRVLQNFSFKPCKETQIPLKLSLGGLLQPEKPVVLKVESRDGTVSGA
Sequence of Cytochrome P450 2C9 (P11712 whole entry): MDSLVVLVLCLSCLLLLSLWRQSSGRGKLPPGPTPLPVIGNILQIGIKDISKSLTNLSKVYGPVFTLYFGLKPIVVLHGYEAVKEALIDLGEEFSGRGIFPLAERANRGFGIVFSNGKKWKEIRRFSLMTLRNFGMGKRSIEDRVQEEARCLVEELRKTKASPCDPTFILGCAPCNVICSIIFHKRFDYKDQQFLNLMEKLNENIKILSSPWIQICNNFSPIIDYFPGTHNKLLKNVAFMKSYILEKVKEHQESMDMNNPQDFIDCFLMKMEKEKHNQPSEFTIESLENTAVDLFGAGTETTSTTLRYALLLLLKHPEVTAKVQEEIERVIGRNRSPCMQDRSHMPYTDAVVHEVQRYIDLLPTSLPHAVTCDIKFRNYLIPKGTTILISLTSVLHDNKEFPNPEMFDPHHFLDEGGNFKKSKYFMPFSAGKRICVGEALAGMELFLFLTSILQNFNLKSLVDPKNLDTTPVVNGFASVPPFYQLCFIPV
Sequence of Phosphatidylinositol 4,5-bisphosphate 3-kinase catalytic subunit gamma isoform (P48736 whole entry, canonical isoform): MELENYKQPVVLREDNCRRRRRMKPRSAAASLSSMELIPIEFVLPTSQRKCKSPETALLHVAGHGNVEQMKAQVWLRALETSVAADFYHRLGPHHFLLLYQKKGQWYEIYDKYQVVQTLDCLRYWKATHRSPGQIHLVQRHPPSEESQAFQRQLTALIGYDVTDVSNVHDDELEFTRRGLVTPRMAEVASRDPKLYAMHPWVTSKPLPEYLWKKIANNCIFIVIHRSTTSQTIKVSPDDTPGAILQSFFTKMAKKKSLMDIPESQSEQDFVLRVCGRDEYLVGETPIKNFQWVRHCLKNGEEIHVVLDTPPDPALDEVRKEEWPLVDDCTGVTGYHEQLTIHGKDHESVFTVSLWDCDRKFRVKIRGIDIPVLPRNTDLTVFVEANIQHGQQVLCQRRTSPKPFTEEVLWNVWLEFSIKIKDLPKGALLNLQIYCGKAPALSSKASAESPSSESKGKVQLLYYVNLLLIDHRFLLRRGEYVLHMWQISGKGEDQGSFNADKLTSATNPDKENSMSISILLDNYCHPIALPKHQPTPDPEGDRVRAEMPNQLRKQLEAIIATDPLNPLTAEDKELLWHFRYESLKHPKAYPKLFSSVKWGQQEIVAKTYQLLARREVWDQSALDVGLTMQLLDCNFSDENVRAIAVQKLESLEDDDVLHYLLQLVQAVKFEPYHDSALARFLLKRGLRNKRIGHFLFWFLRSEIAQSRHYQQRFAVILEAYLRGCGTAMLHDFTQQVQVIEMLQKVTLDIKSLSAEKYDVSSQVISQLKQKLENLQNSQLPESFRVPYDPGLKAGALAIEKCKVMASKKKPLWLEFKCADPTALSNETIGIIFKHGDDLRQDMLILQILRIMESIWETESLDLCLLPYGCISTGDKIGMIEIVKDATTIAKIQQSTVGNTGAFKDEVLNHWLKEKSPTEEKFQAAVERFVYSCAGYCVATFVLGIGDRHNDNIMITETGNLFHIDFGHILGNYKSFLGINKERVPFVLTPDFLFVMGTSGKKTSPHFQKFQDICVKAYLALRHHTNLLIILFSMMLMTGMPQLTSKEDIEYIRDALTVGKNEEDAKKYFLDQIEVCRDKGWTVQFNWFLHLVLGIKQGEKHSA
Sequence of Phosphatidylinositol 4,5-bisphosphate 3-kinase catalytic subunit beta isoform (P42338 whole entry, canonical isoform): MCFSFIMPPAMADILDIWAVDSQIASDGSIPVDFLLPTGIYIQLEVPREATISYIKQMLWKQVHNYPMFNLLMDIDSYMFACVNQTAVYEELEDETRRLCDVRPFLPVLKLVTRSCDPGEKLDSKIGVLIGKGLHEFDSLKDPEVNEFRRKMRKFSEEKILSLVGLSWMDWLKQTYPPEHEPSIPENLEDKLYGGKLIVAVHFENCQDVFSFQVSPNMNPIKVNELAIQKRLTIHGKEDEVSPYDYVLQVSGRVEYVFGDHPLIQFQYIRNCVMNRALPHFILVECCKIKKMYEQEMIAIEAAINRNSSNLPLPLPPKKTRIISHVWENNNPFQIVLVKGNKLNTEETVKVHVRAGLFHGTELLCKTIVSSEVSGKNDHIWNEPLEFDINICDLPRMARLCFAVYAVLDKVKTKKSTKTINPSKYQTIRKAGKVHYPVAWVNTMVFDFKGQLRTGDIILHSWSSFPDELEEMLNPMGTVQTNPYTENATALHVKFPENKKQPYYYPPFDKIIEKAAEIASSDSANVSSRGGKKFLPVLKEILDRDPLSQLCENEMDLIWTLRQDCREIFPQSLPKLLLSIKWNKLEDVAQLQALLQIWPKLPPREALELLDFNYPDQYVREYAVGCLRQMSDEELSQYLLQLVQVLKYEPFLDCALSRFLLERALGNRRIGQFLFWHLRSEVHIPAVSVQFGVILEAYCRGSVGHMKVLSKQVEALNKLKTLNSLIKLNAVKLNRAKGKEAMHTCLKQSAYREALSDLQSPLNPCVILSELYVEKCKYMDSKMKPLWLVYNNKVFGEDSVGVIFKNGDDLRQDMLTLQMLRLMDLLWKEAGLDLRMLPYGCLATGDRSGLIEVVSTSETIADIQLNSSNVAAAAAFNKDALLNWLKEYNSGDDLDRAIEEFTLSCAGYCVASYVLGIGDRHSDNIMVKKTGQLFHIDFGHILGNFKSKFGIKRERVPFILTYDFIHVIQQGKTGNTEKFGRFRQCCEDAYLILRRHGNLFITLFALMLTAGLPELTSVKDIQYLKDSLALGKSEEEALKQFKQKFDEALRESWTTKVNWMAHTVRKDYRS
Sequence of Phosphatidylinositol 4,5-bisphosphate 3-kinase catalytic subunit alpha isoform (P42336 whole entry, canonical isoform): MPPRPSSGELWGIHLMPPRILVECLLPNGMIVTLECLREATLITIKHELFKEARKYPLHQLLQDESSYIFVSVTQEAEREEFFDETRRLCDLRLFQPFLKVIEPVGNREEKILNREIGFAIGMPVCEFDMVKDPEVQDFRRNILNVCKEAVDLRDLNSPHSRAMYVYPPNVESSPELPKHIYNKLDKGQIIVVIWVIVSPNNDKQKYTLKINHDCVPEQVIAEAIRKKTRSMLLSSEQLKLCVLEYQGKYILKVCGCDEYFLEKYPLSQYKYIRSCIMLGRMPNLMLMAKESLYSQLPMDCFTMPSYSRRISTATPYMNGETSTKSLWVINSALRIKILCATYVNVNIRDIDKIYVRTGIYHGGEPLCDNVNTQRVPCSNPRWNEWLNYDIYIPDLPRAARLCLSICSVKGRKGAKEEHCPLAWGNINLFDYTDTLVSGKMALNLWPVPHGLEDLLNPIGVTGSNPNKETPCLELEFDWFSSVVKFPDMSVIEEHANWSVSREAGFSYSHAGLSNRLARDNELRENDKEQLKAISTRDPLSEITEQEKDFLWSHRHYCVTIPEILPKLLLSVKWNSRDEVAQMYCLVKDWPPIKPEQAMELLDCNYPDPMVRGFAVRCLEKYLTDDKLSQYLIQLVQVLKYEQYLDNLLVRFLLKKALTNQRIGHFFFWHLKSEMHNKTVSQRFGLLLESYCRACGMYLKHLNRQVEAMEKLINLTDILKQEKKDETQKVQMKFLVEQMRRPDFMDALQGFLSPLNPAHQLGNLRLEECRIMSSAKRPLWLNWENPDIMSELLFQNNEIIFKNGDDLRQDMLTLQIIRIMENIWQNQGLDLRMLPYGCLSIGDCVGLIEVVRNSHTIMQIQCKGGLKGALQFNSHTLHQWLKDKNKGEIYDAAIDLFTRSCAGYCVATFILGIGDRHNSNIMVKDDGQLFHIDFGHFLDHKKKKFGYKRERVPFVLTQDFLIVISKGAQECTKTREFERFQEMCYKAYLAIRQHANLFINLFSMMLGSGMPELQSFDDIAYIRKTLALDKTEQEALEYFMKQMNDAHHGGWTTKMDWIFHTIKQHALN
Sequence of Cytochrome P450 2D6 (P10635 whole entry): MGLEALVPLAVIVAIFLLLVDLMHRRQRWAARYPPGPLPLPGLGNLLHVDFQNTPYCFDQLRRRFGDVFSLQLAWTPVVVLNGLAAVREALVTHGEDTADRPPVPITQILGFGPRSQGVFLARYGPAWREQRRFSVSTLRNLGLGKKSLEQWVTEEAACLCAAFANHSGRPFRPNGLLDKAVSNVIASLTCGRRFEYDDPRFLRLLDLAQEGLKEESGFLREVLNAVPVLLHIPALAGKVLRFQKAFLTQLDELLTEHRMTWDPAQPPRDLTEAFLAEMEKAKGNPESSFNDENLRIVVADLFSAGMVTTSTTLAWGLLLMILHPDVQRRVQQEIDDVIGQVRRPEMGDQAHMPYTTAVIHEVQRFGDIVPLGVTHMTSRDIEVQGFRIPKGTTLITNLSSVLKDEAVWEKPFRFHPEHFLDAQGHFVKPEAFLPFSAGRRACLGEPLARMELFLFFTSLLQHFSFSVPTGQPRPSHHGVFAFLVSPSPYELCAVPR

| K (Cytochrome P450 3A4) | IC50 [11] | solubility [12] | microsomal CLint at 1 µM [13] | Compound | further results |
| --- | --- | --- | --- | --- | --- |
| 0.08 min⁻¹ |  |  |  | C[C@@H]1COCCN1c1nc(N2CCOC[C@@H]2C)nc2[nH]c(-c3cccc4[nH]ccc34)nc12 | IC50 [1]: 6.6 µM; microsomal CLint [2]: 121 µL/min/mg; IC50 [3]: 6.6 µM; microsomal CLint [4]: 35 µL/min/mg; microsomal CLint [5]: 60 µL/min/mg; IC50 [6]: > 10 µM; microsomal CLint [7]: 27 µL/min/mg; IC50 (Cytochrome P450 2D6): 12.8 µM; microsomal CLint [8]: 62 µL/min/mg; IC50 [9]: 0.8 µM; efflux ratio (MDR1): 0.95; IC50 (Cytochrome P450 2C9): 1.98 µM; IC50 [10]: 0.038 µM |
| 0.02 min⁻¹ | 0.056 µM |  |  | C[C@@H]1COCCN1c1nc(N2CCOC[C@@H]2C)nc2sc(-c3cn[nH]c3)nc12 |  |
| 0.01 min⁻¹ | 0.0069 µM |  |  | C[C@@H]1COCCN1c1nc(N2CCOC[C@@H]2C)nc2sc(-c3cn[nH]n3)nc12 | efflux ratio (MDR1): 0.65 |
| 0.001 min⁻¹ | 0.134 µM | 191 µg/mL (≈ 477 µM) | > 924 µL/min/mg | C[C@@H]1COCCN1c1nc(N2CCN(C)CC2)nc2sc(-c3cc[nH]n3)nc12 |  |
| 0.011 min⁻¹ | 0.0053 µM | 4 µg/mL (≈ 10.3 µM) | 24 µL/min/mg | C[C@@H]1COCCN1c1nc(N2CCOCC2)nc2sc(-c3cc[nH]n3)nc12 |  |
| 0.003 min⁻¹ | 0.0063 µM | 9 µg/mL (≈ 23.3 µM) | 37 µL/min/mg | C[C@@H]1COCCN1c1nc(C2CCOCC2)nc2sc(-c3cc[nH]n3)nc12 |  |
|  |  |  |  | CO[C@H]1C[C@@H]2CC[C@@H](C)[C@@](O)(O2)C(=O)C(=O)N2CCCC[C@H]2C(=O)O[C@H]([C@H](C)C[C@@H]2CC[C@@H](OCCO)[C@H](OC)C2)CC(=O)[C@H](C)/C=C(\C)[C@@H](O)[C@@H](OC)C(=O)[C@H](C)C[C@H](C)/C=C/C=C/C=C/1C [EVEROLIMUS] | Activity (Mus musculus): 100%; IC50 (Cortical neurone [14]): 0.00015 µM; inhibition (Cortical neurone [15]): Active |
| 0.006 min⁻¹ | 0.603 µM |  | 100 µL/min/mg | C[C@@H]1COCCN1c1ncnc2sc(-c3cc[nH]n3)nc12 |  |
| 0.008 min⁻¹ | 0.092 µM | 325 µg/mL (≈ 809 µM) | > 924 µL/min/mg | C[C@@H]1COCCN1c1nc(CN2CCOCC2)nc2sc(-c3cc[nH]n3)nc12 |  |
| 0.011 min⁻¹ | 0.0027 µM | < 2 µg/mL | 164 µL/min/mg | C[C@@H]1COCCN1c1nc(N2CCCOCC2)nc2sc(-c3cc[nH]n3)nc12 |  |
| 0.035 min⁻¹ | 0.278 µM |  |  | C[C@@H]1COCCN1c1nc(N2CCOC[C@@H]2C)nc2sc(-c3cccc(O)c3)nc12 |  |
| 0.027 min⁻¹ | 0.305 µM |  |  | C[C@@H]1COCCN1c1nc(N2CCOC[C@@H]2C)nc2sc(-c3cccc4[nH]ccc34)nc12 |  |
| 0.013 min⁻¹ | 0.0078 µM |  |  | C[C@@H]1COCCN1c1nc(N2CCOC[C@@H]2C)nc2sc(-c3c[nH]cn3)nc12 | efflux ratio (MDR1): 0.89 |
| 0.012 min⁻¹ | 0.0037 µM | < 1 µg/mL | 104 µL/min/mg | CC(C)c1nc(N2CCOC[C@H]2C)c2nc(-c3cc[nH]n3)sc2n1 |  |
